In patent US20220370456A1, “COMBINATION THERAPIES COMPRISING SHP2 INHIBITORS AND EGFR TYROSINE KINASE INHIBITORS” (HUYABIO International, LLC, priority 2021, published 2022):
Like-named read-outs stand apart in the source and are kept apart here.

Experiments:
HCC827-ER1 cells = assay: Cell viability assay (CellTiter-Glo), cell proliferation; format: cell-based; settings: for IC50: HCC827-ER1, read on Day 5, CellTiter-Glo, read-out: Absolute IC50
Procedure: (§1) Cell lines and maintenance: Both cell lines (HCC827-ER1 and NCI-H1975) used for in vitro and in vivo studies were supplied by Crown Biosciences cell bank. […] NCI-H1975 cells were maintained in RPMI medium supplemented with 10% heat inactivated fetal bovine serum+100 ug/mL Hygromyocin at 37° C. in an atmosphere of 5% CO2 in air. The tumor cells were routinely subcultured twice weekly. The cells growing in an exponential growth phase were used for the in vitro cell potency and in vivo efficacy studies.
(§2) Cell Viability Assay: For cell cytotoxicity assays, cells were plated in 96-well plates and plating densities were determined on the basis of Crown Biosciences Cell line Database. Cells were plated at 2000 cells/well. Twenty four hours after plating, cells were treated with inhibitors at the indicated compound concentrations. On Day 5, cells were lysed with CellTiter-Glo® Luminescent Cell Viability Assay reagent (Promega) and luminescence was read using the EnVision Multi-plate reader. To calculate IC50s, a dose-response curve is generated using a nonlinear regression model with a sigmoidal dose response. IC50s were automatically generated by GraphPad Prism 8.0. The formula of surviving rate is shown below:
(§3) The surviving rate (%)=((LumTest article−LumMedium control)/(LumNone treated−LumMedium control))×100

[1] = system: NCI-H1975 (L858R/T790M/C797S) cells; assay: as above; format: cell-based; settings: for IC50: NCI-H1975 (L858R/T790M/C797S), read on Day 5, CellTiter-Glo, read-out: Absolute IC50
Procedure: as §1, §2, §3

HCC827-ER1 tumor = HCC827-ER1 tumor model, in vivo tumor volume; settings: HCC827-ER1 tumors in female Balb/C Nude animals, during treatment, FIG. 2A-B
Procedure: Animals (6-8 weeks) were obtained from Shanghai Lingchang Biotechnology Co., Ltd (Shanghai, China) and were allowed to acclimate prior to tumor cell inoculation.
All cell lines were maintained in culture and cells in exponential growth phase were harvested and quantitated by cell counter before tumor inoculation. HCC827-ER1 tumor cells (5×10^7) in 0.1 ml of PBS mixed with Matrigel (1:1) inoculated into female Balb/C Nude animals, mean tumor approximately 325 mm^3 at the start of treatment.
The date of randomization and treatment initiation was denoted as day 0. Tumor volumes were measured twice per week in two dimensions using a caliper, and the volume will be expressed in mm^3 using the formula: V=(L×W×W)/2, where V is tumor volume, L is tumor length (the longest tumor dimension) and W is tumor width (the longest tumor dimension perpendicular to L). Dosing volume was 10 mL/kg/day. GH21005 were dissolved in HP-β-CD was dissolved with 200 ml of 50 mM sodium citrate (pH=4.2). Anti-PD-1 and Rat IgG2a were diluted in PBS.
Upon termination, tumors were collected 2 hours post last dose.

N.N.[Cl][Pt][Cl] [Cisplatin]
IC50 (HCC827-ER1 cells): 7170 nM
IC50 [1]: 10300 nM

C[C@H]1OCC2(CCN(c3cnc(Sc4ccnc(N)c4Cl)c(N)n3)CC2)[C@H]1N [GH21001(TNO-155)]
IC50 (HCC827-ER1 cells; 120 h): 1890 nM
IC50 ([1]; Homo sapiens, 120 h): > 10000 nM

C[C@@H]1OCC2(CCN(c3cnc(Sc4cccc(NC(=O)c5c(O)nc6n(c5=O)CCCC6)c4Cl)cn3)CC2)[C@@H]1N [GH21005(HBI-2376), N-(3-((5-((3S,4S)-4-amino-3-methyl-2-oxa-8-azaspiro[4.5]decan-8-yl)pyrazin-2-yl)thio)-2-chlorophenyl)-2-hydroxy-4-oxo-6,7,8,9-tetrahydro-4H-pyrido[1,2-a]pyrimidine-3-carboxamide]
IC50 (HCC827-ER1 cells; 120 h): 80 nM
potency in cell proliferation assay compared to TNO-155 and RMC-4550 (HCC827-ER1 cells; HCC827-ER1 cell model, FIG. 1A): superior potency
IC50 ([1]; Homo sapiens, 120 h): 960 nM
potency in cell proliferation assay compared to TNO-155 and RMC-4550 ([1]; NCI-H1975 cell model, FIG. 1B): superior potency
effect on tumor volume (HCC827-ER1 tumor): did not result in a reduction of tumor volume

C=CC(=O)Nc1cc(Nc2nccc(-c3cn(C)c4ccccc34)n2)c(OC)cc1N(C)CCN(C)C [Osimertinib]
IC50 (HCC827-ER1 cells; 120 h): 2800 nM
effect on tumor volume (HCC827-ER1 tumor): only a slight and temporary decrease in tumor volume, followed by growth in tumor volume
